Source: US11414387B2, “Oxoacridinyl acetic acid derivatives and methods of use” (Stingthera, Inc., priority 2017, dated 2022)

Legend:
mSTING = mSTING (Mus musculus, UniProt Q3TBT3); assay: Radiometric filtration binding competition assay, mSTING
mSTING-R232 = mSTING-R232 (Mus musculus, UniProt Q3TBT3); assay: STING differential scanning fluorimetry (DSF) assay, mouse STING; settings: net shift in melting temperature
hSTING-WT = hSTING-WT (Homo sapiens (Human), UniProt Q86WV6, H232R); assay: Radiometric filtration binding competition assay, hSTING-WT
Chain of hSTING-WT (Q86WV6 140-379 H232R): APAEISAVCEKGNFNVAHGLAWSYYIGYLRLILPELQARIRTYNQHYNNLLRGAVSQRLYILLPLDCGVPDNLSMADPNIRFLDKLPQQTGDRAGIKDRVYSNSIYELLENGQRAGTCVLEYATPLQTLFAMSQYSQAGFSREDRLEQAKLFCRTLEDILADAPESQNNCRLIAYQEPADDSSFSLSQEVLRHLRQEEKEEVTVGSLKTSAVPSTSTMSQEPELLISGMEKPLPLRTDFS

hSTING-HAQ [1] = molecular target: T1, hSTING-HAQ (Homo sapiens (Human), UniProt Q86WV6, G230A/H232R/R293Q); assay: Radiometric filtration binding competition assay, hSTING-HAQ
T1 sequence (Q86WV6 140-379 G230A/H232R/R293Q): as the sequence (Q86WV6 140-379 H232R) above, with G91A, R154Q counted along it
Description: A radiometric filtration binding competition assay was performed to quantify the binding affinity of compounds of the present application for the human or mouse STING protein, or associated HAQ human isoform. […] The resulting dose response was fit by non-linear regression to determine an IC50 value, from which a Ki value for each compound was extrapolated.
The resulting complexes were then filtered, dried, and scintillation fluid was added and the remaining radio signal was measured to determine the degree of compound ligand inhibition. This assay format was optimized for both the WT and HAQ isoforms of the human protein and the mouse orthologue protein.
Probe Concentration: Minimum concentration that achieved max assay window • g. Assay Format: Scintillation Proximity Bead or Filtration Binding Plate • h. […] Assay incubation times for successive incubation steps
WT-hSWAT: WT_FBA_HIS-SUMO-hSWAT IC50 (μM) (“WT”=Wild-type); HAQ-hSWAT: HAQ_FBA_HIS-SUMO-hSWAT IC50 (μM) (“HAQ”=human HAQ allele of STING protein); and WT-mSWAT: MOUSE_FBA_HIS-SUMO-mnSWAT IC50 (μM) which is the mouse isoform of STING protein.

STING protein = STING protein (Homo sapiens (Human), UniProt Q86WV6, H232R); assay: Cell based reporter assay of IRF activation (IRF-luciferase), THP1-dual-KI R232; settings: read-out: THP1-dual-KI R232_IRF(Luciferase)_Activity Maximum measured (%)
Chain of STING protein (Q86WV6 whole entry H232R, the tested form may be a part): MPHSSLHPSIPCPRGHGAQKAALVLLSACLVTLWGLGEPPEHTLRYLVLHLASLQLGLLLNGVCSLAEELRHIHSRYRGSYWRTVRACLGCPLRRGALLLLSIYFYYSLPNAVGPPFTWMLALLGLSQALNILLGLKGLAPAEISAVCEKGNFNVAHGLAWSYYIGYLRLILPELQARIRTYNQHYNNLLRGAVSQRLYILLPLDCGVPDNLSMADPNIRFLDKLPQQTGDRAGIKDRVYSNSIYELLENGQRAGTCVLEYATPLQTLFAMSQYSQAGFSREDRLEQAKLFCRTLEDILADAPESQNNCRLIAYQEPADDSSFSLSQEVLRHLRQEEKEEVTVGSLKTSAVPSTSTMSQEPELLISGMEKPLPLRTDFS

hSTING-HAQ [2] = molecular target: T1, hSTING-HAQ; assay: STING differential scanning fluorimetry (DSF) assay, HAQ human STING; settings: HAQ human STING aa140-379, net shift in melting temperature
Description: (§1) A STING DSF assay was performed to determine protein thermostability shift in response to small molecule ligand binding. A STING thermostability shift assay based on differential scanning fluorimetry was used to measure (1) the net shift in melting temperature (ΔTm)between the apo and ligand-bound states of the STING protein and (2) the concentration of the thermal denaturation transition (EC50) as a surrogate measure of binding affinity (K). […] Protein in assay buffer was transferred to a 384 well plate and incubated with the hydrophobic fluorescent dye SYBR Orange. A temperature ramp was applied to the plate and the resulting dye fluorescence was plotted as a function of temperature. The first derivative of this function (dF/dT) was then used to extrapolate the melting temperature of the protein at various concentrations of compound and determine the thermal denaturation profile of a protein/compound complex.
(§2) • 1. Protein construct (affinity tag removal vs SUMO-fusion construct) • 2. Protein concentration • 3. Dye concentration • 4. Buffer • 5. Thermal ramp velocity • 6. DMSO tolerance • 7. Compound titration parameters • 8. […] 5 μM purified Target STING Protein • 3. 8 μM Sypro Orange Dye • 4. Buffer: 100 mM NaCl, 30 mM HEPES, pH 7.5 • 5. Thermal Ramp: 0.5° C./min • 6. <1% DMSO • 7. 11 point, 2 fold dilution, duplicate, 300 μM high concentrations • 8.

hSTING-R232 = hSTING-R232 (Homo sapiens (Human), UniProt Q86WV6, H232R); assay: STING differential scanning fluorimetry (DSF) assay, WT human STING; settings: WT (R232) human STING aa140-379, net shift in melting temperature
Chain of hSTING-R232 (Q86WV6 140-379 H232R): as the sequence (Q86WV6 140-379 H232R) above
Description: as §1, §2

hSTING-CTD = hSTING-CTD (Homo sapiens (Human), UniProt Q86WV6); assay: Human STING protein FP competition concentration response assay; format: binding
Chain of hSTING-CTD (Q86WV6 135-379): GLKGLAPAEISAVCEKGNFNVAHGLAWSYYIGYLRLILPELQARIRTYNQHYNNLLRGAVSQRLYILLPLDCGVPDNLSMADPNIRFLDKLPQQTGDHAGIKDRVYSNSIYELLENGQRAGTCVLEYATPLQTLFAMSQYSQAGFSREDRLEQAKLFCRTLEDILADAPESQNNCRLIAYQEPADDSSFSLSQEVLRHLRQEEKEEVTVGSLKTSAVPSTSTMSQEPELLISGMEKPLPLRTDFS
Summary of the method: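 Fluorescence polarization competition: recombinant hSTING-CTD (10 uM final) with 30 nM fluorescein-labeled c-di-GMP probe and titrated compound (2-fold, 14 points; 3.35% DMSO) in PBS, 10-20 min at r.t. Fluorescence anisotropy read; IC50 from 4-parameter logistic fit.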

IC50 (mSTING) [µM] | MOUSE DSF_6xHIS-SUMO Tm Shift (° C.) (mSTING-R232) | IC50 (hSTING-WT) [µM] | IC50 (hSTING-HAQ [1]) [µM] | Emax (STING protein) [%] | HAQ_DSF_hSWAT Tm Shift (° C.) (hSTING-HAQ [2]) | WT_DSF_hSWAT Tm Shift (° C.) (hSTING-R232) | IC50 (hSTING-CTD) [µM] | SMILES
< 20 | D (“D” > 15° C.) | < 20 | 20 to 100 | > 50 | D (“D” > 7° C.) |  |  | O=C(O)Cn1c2cc(Nc3ccc(F)cc3)ccc2c(=O)c2ccc(Cl)c(Cl)c21 [Compound 218]
< 20 | D (“D” > 15° C.) | < 20 | 20 to 100 | > 50 | D (“D” > 7° C.) | D (“D” > 7° C.) |  | COc1c(Cl)ccc2c(=O)c3ccc(Nc4ccccc4)cc3n(CC(=O)O)c12 [Compound 207]
< 20 | D (“D” > 15° C.) | 20 to 100 | 20 to 100 | > 50 | D (“D” > 7° C.) | D (“D” > 7° C.) |  | CC(C)(C)c1ccc2c(=O)c3ccc(Cl)c(Br)c3n(CC(=O)O)c2c1 [Compound 176]
20 to 100 |  | < 20 | 20 to 100 | > 50 | D (“D” > 7° C.) | D (“D” > 7° C.) |  | COc1c(Cl)ccc2c(=O)c3ccc(C4CCCCC4)cc3n(CC(=O)O)c12 [Compound 220]
< 20 |  | < 20 | 20 to 100 | > 50 | D (“D” > 7° C.) | D (“D” > 7° C.) |  | COc1c(Cl)ccc2c(=O)c3ccc(C(C)(C)C)cc3n(CC(=O)O)c12 [Compound 204]

Second part, the compound before the results:

SMILES | IC50 (mSTING) [µM] | MOUSE DSF_6xHIS-SUMO Tm Shift (° C.) (mSTING-R232) | IC50 (hSTING-WT) [µM] | IC50 (hSTING-HAQ [1]) [µM] | Emax (STING protein) [%] | HAQ_DSF_hSWAT Tm Shift (° C.) (hSTING-HAQ [2]) | WT_DSF_hSWAT Tm Shift (° C.) (hSTING-R232) | IC50 (hSTING-CTD) [µM]
O=C(O)Cn1c2cc(C3CCCCC3)ccc2c(=O)c2ccc(Cl)c(Cl)c21 [Compound 115] | < 20 | D (“D” > 15° C.) | 20 to 100 | 100 to 300 | 25 to 50 | C (“C” = 2-7° C,) | C (“C” = 2-7° C,) | < 100
O=C(O)Cn1c2cc(NC3CCCCC3)ccc2c(=O)c2ccc(Cl)c(Br)c21 [Compound 110] | < 20 | D (“D” > 15° C.) | < 20 | 20 to 100 | > 50 | D (“D” > 7° C.) | D (“D” > 7° C.) | 
O=C(O)Cn1c2cc(C3CCCCC3)ccc2c(=O)c2ccc(Cl)c(Br)c21 [Compound 147] | < 20 | D (“D” > 15° C.) | < 20 | 20 to 100 | > 50 | D (“D” > 7° C.) | D (“D” > 7° C.) | 
CC1(C)CC=C(c2ccc3c(=O)c4ccc(Cl)c(Cl)c4n(CC(=O)O)c3c2)CC1 [Compound 159] | < 20 | C (“C” = 5-15° C.) | 20 to 100 | 20 to 100 | 5 to 25 | A (“A” < 0° C.) | A (“A” < 0° C.) | 
Cc1cccc(-c2ccc3c(=O)c4ccc(Cl)c(Cl)c4n(CC(=O)O)c3c2)c1 [Compound 151] | < 20 | C (“C” = 5-15° C.) | 20 to 100 | 20 to 100 | < 5 | C (“C” = 2-7° C,) | B (“B” = 0-2° C.) | 
CC(C)c1ccc2c(=O)c3ccc(Cl)c(Br)c3n(CC(=O)O)c2c1 [Compound 111] | 20 to 100 | C (“C” = 5-15° C.) | 20 to 100 | 100 to 300 | > 50 | D (“D” > 7° C.) | D (“D” > 7° C.) | < 100
